Where “and” joins values, the source holds several entries; their conditions need not be identical. Equal values may be shown once.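 These data come from cells grown in 96-well plates and exposed to compound for 48 hours at five concentrations. Here, GI50 denotes the concentration required for 50% inhibition of growth. TGI: total growth inhibition.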

Test systems include M19-MEL melanoma; XF 498 CNS; DMS 273 small cell lung; DLD-1 colon; KM20L2 colon; BT-549 breast; HS 578T breast; MDA-MB-435; T-47D breast; DU-145 prostate; MDA-MB-231 breast; DMS 114 small cell lung.
Experiment in all cases: NCI anticancer screen, dose series, 48 h

For `O=C1C2=C(c3ccccc31)C(c1ccccc1Cl)NC(=S)N2` (centres undefined), the TGI in the test with M19-MEL melanoma, with XF 498 CNS, in the test on DMS 273 small cell lung, with DLD-1 colon and in the test with KM20L2 colon was over 100 µM in each case.

Consider `CC(C)[C@]12O[C@H]1[C@@H]1O[C@]13[C@]1(O[C@H]1C[C@H]1C4=C(CC[C@@]13C)C(=O)OC4)[C@@H]2OC(=O)OC(C)(C)C`, for which the GI50 is 0.0172 µM in the test with BT-549 breast; 0.019 µM in the test on HS 578T breast; 0.0122 µM in the test with MDA-MB-435; 0.027 µM with T-47D breast; 0.0204 µM with DU-145 prostate; 0.0543 µM in the test on MDA-MB-231 breast. Also, the TGI in the test with BT-549 breast was 0.0616 µM; in the test on HS 578T breast, 0.0713 µM; with MDA-MB-435 it was 0.0478 µM; with T-47D breast, over 100 µM; with DU-145 prostate, over 100 µM; in the test on MDA-MB-231 breast, over 100 µM.

As for `Cc1cc2c(=O)cc(-c3ccc(C(=O)O)cc3)oc2c(C(N)=O)c1C`, the TGI in the test with M19-MEL melanoma, in the test with DMS 273 small cell lung, in the test with DLD-1 colon, in the test on DMS 114 small cell lung and with KM20L2 colon was over 100 µM each time.

For the compound `CCOC(=O)Cc1csc(Nc2nc(O)c(C3=c4ccccc4=NC3=O)s2)n1`, the GI50 was 92.3 µM in the test with BT-549 breast; 47 µM in the test with HS 578T breast; 40.9 µM with MDA-MB-435; 54.4 µM in the test on T-47D breast; 24.6 µM with DU-145 prostate; 29.1 µM with MDA-MB-231 breast. Also, the TGI in the test on BT-549 breast was over 100 µM; with HS 578T breast, over 100 µM; in the test with MDA-MB-435, over 100 µM; with T-47D breast it was over 100 µM; with DU-145 prostate, 56.7 µM; with MDA-MB-231 breast it was 72.1 µM.

`O=C(NCCNc1nccc(-c2c(-c3ccc(F)cc3)nc3sccn23)n1)Nc1cccc(C(F)(F)F)c1`: the GI50 in the test on BT-549 breast was 13.2 µM; in the test on HS 578T breast it was 8.17 µM; in the test on MDA-MB-435, 3.12 µM; in the test with T-47D breast, 2.15 µM; in the test with DU-145 prostate it was 11.6 µM; in the test with MDA-MB-231 breast it was 3.28 µM. The TGI in the test with BT-549 breast came out at 30.5 µM; in the test with HS 578T breast, 65.5 µM; in the test on MDA-MB-435, 11.4 µM; in the test on T-47D breast, 8.48 µM; in the test on DU-145 prostate it was 30.9 µM; with MDA-MB-231 breast, 10.1 µM.

For the compound `CCN1C2=C(SC(=S)C1=C1SC(C(=O)c3ccccc3)=C(C(=O)c3ccccc3)S1)SC(=Nc1ccccc1)C2=O`, the GI50 in the test with BT-549 breast was 5.2 µM; in the test with HS 578T breast, 2.58 µM; in the test with MDA-MB-435, 9.41 µM; in the test on T-47D breast, 19.6 µM; in the test on DU-145 prostate, 24.6 µM; in the test with MDA-MB-231 breast, 13.6 µM. In addition, the TGI in the test with BT-549 breast was 42.7 µM; in the test on HS 578T breast, 72.9 µM; in the test with MDA-MB-435 it was over 100 µM; in the test with T-47D breast it was over 100 µM; in the test on DU-145 prostate, over 100 µM; with MDA-MB-231 breast it was over 100 µM.

`COc1ncnn2ccc(-c3cnc4nc(C)n(Cc5nnc(C(C)F)o5)c4c3)c12` (centres undefined): the GI50 with BT-549 breast is 0.0585 µM; in the test on HS 578T breast, 0.265 µM; in the test on MDA-MB-435, 0.223 µM; in the test with T-47D breast, 0.0853 µM; in the test on DU-145 prostate it was 0.288 µM; in the test with MDA-MB-231 breast, 0.278 µM. Moreover, the TGI in the test with BT-549 breast is 1.61 µM; with HS 578T breast it was 7.21 µM; with MDA-MB-435, over 100 µM; in the test with T-47D breast it was over 100 µM; in the test with DU-145 prostate, over 100 µM; in the test on MDA-MB-231 breast it was 27 µM.

`CC12OC(C(=O)C13CC3)C1C(=O)c3cccc(O)c3C(=O)C12` (centres undefined): the GI50 in the test on BT-549 breast is 19.1 µM; in the test on HS 578T breast, 25.8 µM; with MDA-MB-435, 16.9 µM; with T-47D breast, 23.3 µM; in the test on DU-145 prostate it was 15.3 µM; in the test on MDA-MB-231 breast it was 2.43 µM. The TGI is 58.1 µM in the test with BT-549 breast; 82.1 µM with HS 578T breast; over 57.7 µM with MDA-MB-435; over 70.6 µM with T-47D breast; 56.2 µM in the test on DU-145 prostate; 16.3 µM in the test with MDA-MB-231 breast.

For the compound `CC(C)c1ccc2c(c1)CCC1C(C)(CN)CCCC21C` (centres undefined), the TGI came to 3.43 µM in the test on BT-549 breast; 3.57 µM in the test with HS 578T breast; 2.89 µM in the test with MDA-MB-435; 3.3 µM in the test on T-47D breast; 3.33 µM with DU-145 prostate; 2.95 µM in the test with MDA-MB-231 breast.

On to `Fc1ccc(-c2nn3c(COc4ccccc4Cl)nnc3s2)cc1Oc1ccccc1`, for which the GI50 is 41.1 µM in the test on BT-549 breast; 47.6 µM in the test with HS 578T breast; 33.2 µM with MDA-MB-435; 34.5 µM in the test on T-47D breast; 39 µM with DU-145 prostate; 17.8 µM in the test with MDA-MB-231 breast. Moreover, the TGI in the test with BT-549 breast was over 100 µM; with HS 578T breast, over 100 µM; in the test with MDA-MB-435, over 100 µM; in the test with T-47D breast, over 100 µM; in the test with DU-145 prostate it was over 100 µM; in the test on MDA-MB-231 breast, 45.6 µM.

As for `COc1cccc(Nc2ncnn3ccc(CN4CC[C@@H](N)[C@H](O)C4)c23)c1`, the GI50 with BT-549 breast is 14.2 µM and > 4.68 µM; with HS 578T breast, 0.698 µM and 0.395 µM; with MDA-MB-435, 14.8 µM and > 4.71 µM; with DU-145 prostate, 1.59 µM and 0.927 µM; in the test with MDA-MB-231 breast, 2.3 µM and 1.54 µM. The TGI in the test on BT-549 breast is 47.7 µM and > 7.41 µM; with HS 578T breast, 5.18 µM and 2.69 µM; in the test with MDA-MB-435, 29.9 µM and > 10 µM; in the test with T-47D breast, 29.2 µM and > 6.86 µM; in the test with DU-145 prostate, over 100 µM; in the test on MDA-MB-231 breast, 25.9 µM and > 10 µM.

As for `NS(=O)(=O)c1ccc(N=Nc2c(O)[nH]c3cccc(CCc4ccncc4)c23)cc1`, the GI50 with BT-549 breast, in the test with HS 578T breast, in the test on MDA-MB-435, in the test with T-47D breast, in the test on DU-145 prostate and in the test on MDA-MB-231 breast was over 25 µM in each case. The TGI in the test with BT-549 breast, in the test with HS 578T breast, in the test on MDA-MB-435, in the test with T-47D breast, with DU-145 prostate and in the test with MDA-MB-231 breast was over 25 µM throughout.

As for `Cc1cc(S(=O)(=O)Nc2n[nH]c(-c3ccc(Cl)cc3)c2C#N)c(S)cc1Cl`, the GI50 is over 100 µM in the test with BT-549 breast; 35.8 µM in the test with HS 578T breast; over 100 µM in the test on MDA-MB-435; over 100 µM in the test with T-47D breast; over 100 µM with DU-145 prostate; over 100 µM in the test with MDA-MB-231 breast. The TGI in the test with BT-549 breast, in the test on HS 578T breast, in the test on MDA-MB-435, with T-47D breast, in the test with DU-145 prostate and with MDA-MB-231 breast was over 100 µM in each case.

Take `O=C([CH-]C(=O)c1ccccc1)c1ccccc1.O=C([CH-]C(=O)c1ccccc1)c1ccccc1.[CH2-]CCC.[CH2-]CCC.[Sn+4]`: in the test on KM20L2 colon, the GI50 was 1.57 µM and the TGI amounted to 3.11 µM.

Turning to `O=C(CSc1nc2ccc([N+](=O)[O-])cc2[nH]1)Nc1ccc([N+](=O)[O-])cc1`, the GI50 with BT-549 breast is 2.34 µM; in the test on HS 578T breast, 2.31 µM; in the test with MDA-MB-435, 2.66 µM; with T-47D breast it was 1.59 µM; with DU-145 prostate, 3.51 µM; with MDA-MB-231 breast, 2.08 µM. The TGI is 14.3 µM in the test on BT-549 breast; 10.2 µM with HS 578T breast; 12.7 µM in the test on MDA-MB-435; 12.9 µM in the test with T-47D breast; 15.6 µM in the test with DU-145 prostate; 6.31 µM with MDA-MB-231 breast.

As for `CN1C[C@@H]2CC(=O)CC[C@@H]2C[C@H]1C#N`, the TGI in the test on XF 498 CNS, in the test on DLD-1 colon, with DMS 114 small cell lung and in the test on KM20L2 colon was over 100 µM each time.

Take `COc1cc2c3c(n(CCCNC(C)(C)CO)c(=O)c2cc1OC)-c1cc2c(cc1C3=O)OCO2`: the GI50 in the test with BT-549 breast is 12.9 µM; with HS 578T breast, 24.5 µM; with MDA-MB-435, 4.52 µM; in the test with T-47D breast, 3.47 µM; in the test with DU-145 prostate, 0.819 µM; in the test on MDA-MB-231 breast it was 1.23 µM. Also, the TGI in the test with BT-549 breast is 39.2 µM; in the test with HS 578T breast, 80.7 µM; with MDA-MB-435 it was over 75.5 µM; in the test with T-47D breast, 47.6 µM; in the test on DU-145 prostate it was 16.3 µM; in the test on MDA-MB-231 breast, 7 µM.

As to `O=C(O)c1cc(C(=O)C(=O)c2cc(C(=O)O)c(O)c3ccccc23)c2ccccc2c1O`, the TGI with BT-549 breast, with HS 578T breast, with MDA-MB-435, in the test on T-47D breast, in the test on DU-145 prostate and in the test on MDA-MB-231 breast was over 100 µM throughout.

Take `OC1CCC(COC(c2ccccc2)(c2ccccc2)c2ccccc2)O1` (centres undefined): the TGI with BT-549 breast worked out at 40.6 µM; in the test with HS 578T breast it was 35.7 µM; with MDA-MB-435, 39.9 µM; with T-47D breast it was 38.2 µM; in the test with DU-145 prostate it was 38.3 µM; in the test on MDA-MB-231 breast, 32.1 µM.

As for `N#C/C(=C\c1ccc([N+](=O)[O-])cc1)n1nnc2cc(F)c(F)cc21`, the GI50 in the test on BT-549 breast was 1.77 µM; with HS 578T breast, 2.65 µM; in the test with MDA-MB-435 it was 2.32 µM; with T-47D breast it was 1.09 µM; with DU-145 prostate, 1.72 µM; in the test with MDA-MB-231 breast, 1.97 µM. Besides, the TGI in the test with BT-549 breast amounted to 4.17 µM; with HS 578T breast it was 11.4 µM; with MDA-MB-435, 5.85 µM; in the test on T-47D breast, 2.74 µM; with DU-145 prostate it was 3.14 µM; with MDA-MB-231 breast it was 4.84 µM.

For the origin of these results see PubChem BioAssay (NCI).
